Data taken from patent US20070203098A1, “Pten Inhibitors” (priority 2004, published 2007).
pIC50: −log10 of the molar value. Counter-ions that a name gives are not always drawn. Like-named read-outs stand apart in the source and are kept apart here. One block for each compound: values may come before it.

Experiments:
Type in all cases: biochemical
[1] = target: T1, PTEN (Homo sapiens, UniProt P60484); test: PTEN Inhibition Assay: General Screening
[2] = target: T2, PTP1B (Homo sapiens, UniProt P18031); test: PTP1B Inhibition Assay: IC50 Determinations
T2 sequence (P18031 1-435): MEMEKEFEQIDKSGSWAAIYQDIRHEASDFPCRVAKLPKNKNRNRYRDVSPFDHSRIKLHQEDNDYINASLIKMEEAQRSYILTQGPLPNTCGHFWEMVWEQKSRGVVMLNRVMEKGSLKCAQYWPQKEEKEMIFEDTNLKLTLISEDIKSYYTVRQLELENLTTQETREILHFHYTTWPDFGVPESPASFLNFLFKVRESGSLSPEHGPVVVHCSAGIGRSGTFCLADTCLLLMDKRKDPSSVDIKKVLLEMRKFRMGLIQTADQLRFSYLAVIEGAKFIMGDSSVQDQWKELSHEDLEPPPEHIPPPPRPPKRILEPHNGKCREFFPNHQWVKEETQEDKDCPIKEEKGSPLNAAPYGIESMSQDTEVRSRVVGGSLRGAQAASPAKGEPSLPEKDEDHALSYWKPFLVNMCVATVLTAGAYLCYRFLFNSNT

[3] = target: T1, PTEN; test: PTEN Inhibition Assay: IC50 Determinations
[4] = read-out: % Inhibition at 250 uM
[5] = 250 uM, Table 23 polyamides, read-out: % Inhibition @250 uM
[6] = 250 uM, Table 15 diamides, furazan core, read-out: % Inhibition @ 250 uM
[7] = 250 uM, Table 24 known PTP inhibitors, read-out: % Inhibition at 250 uM
[8] = 250 uM, Table 22 imidazoles, read-out: % Inhibition at 250 uM
[9] = read-out: % Inhibition @ 250 uM

T1 sequence (P60484 whole entry, species assumed): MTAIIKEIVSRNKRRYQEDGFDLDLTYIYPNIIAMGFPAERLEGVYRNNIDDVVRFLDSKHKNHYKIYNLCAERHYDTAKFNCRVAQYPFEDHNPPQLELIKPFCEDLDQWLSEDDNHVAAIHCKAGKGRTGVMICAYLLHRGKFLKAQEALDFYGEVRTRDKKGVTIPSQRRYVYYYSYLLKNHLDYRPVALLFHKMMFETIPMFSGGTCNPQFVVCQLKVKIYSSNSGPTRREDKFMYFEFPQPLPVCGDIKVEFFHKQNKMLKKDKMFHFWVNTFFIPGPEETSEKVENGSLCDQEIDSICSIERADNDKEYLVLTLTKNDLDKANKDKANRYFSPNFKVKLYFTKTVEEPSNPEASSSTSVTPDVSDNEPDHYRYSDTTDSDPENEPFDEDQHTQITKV

Compound: CC(C)=C[C@@H]1[C@H](C(=O)OCc2coc(Cc3ccccc3)c2)C1(C)C (mixture of isomers) [SF1671-000, 5-Benzyl-3-furylmethyl (1R,S)-cis,trans-chrysanthemate, reference compound]
inhibition at 250 µM [1, 4]: 9.6%

Compound: CC1(C)C(C=C(Cl)Cl)[C@H]1C(=O)O[C@@H](C#N)c1cccc(Oc2ccccc2)c1 (stereo in doubt) [SF1687-000, Cypermethrin, reference compound]
inhibition at 250 µM [1, 4]: -5.9%

Compound: NCCCC(O)(P(=O)([O-])O)P(=O)(O)O.[Na+] [CC1669-100, Alendronate, Sodium, Trihydrate, reference compound]
% Inhibition @ 250 uM in PTEN Assay [1]: minimal activity | inhibition at 250 µM ([1]; read-out: % Inhibition @ 250 uM in PTEN Assay): -0.9 to 20%

inhibition at 250 µM [1, 5]: 35.3%
Compound: O=C(CCC(=O)NNC(=O)COc1ccc(Cl)cc1)NNC(=O)COc1ccc(Cl)cc1 [SF1516-000]

inhibition at 250 µM [1, 5]: 52.4%
Compound: CCOC(=O)CNC(=O)C(c1ccc(O)cc1)N(C(=O)c1snc(C(N)=O)c1N)c1ccc2c(c1)OCO2 (stereo not shown) [SF1552-000]

inhibition at 250 µM [1, 5]: 70.6%
Compound: CCOC(=O)CNC(=O)C(c1ccc2ncccc2c1)N(CC1CCCO1)C(=O)c1snc(C(N)=O)c1N (stereo not shown) [SF1566-000]

inhibition at 250 µM [1, 5]: 60.2%
Compound: Nc1nonc1NC(=O)N/N=C/CCC/C=N/NC(=O)Nc1nonc1N [SF1567-000]

pIC50 ([2]; Table 29, read-out: PTP1B IC50): 5.24 | inhibition at 250 µM [1, 6]: 58 to 80% | pIC50 ([3]; Table 29, read-out: PTEN IC50): 3.95 to 4.10
Compound: Cc1ccc(C)c(OCC(=O)Nc2nonc2NC(=O)COc2cc(C)ccc2C)c1 [SF1609-000]

pIC50 ([2]; Table 29, read-out: PTP1B IC50): 4.87 | inhibition at 250 µM [1, 6]: 3 to 81% | pIC50 ([3]; Table 29, read-out: PTEN IC50): 4.08 to 4.18
Compound: CC(C)c1ccccc1OCC(=O)Nc1nonc1NC(=O)COc1ccccc1C(C)C [SF1617-000]

inhibition at 250 µM ([1]; 250 uM, Table 16, read-out: % Inhibition @ 250 uM): 2.2%
Compound: O=C(COc1ccccc1)NC1CCCCC1NC(=O)COc1ccccc1 (stereo not shown) [SF1647-000]

Compound: CC1(C)[C@H](C=C(Br)Br)[C@@H]1C(=O)OC(C#N)c1cccc(Oc2ccccc2)c1 (stereo partly shown) [SF1667-000, Deltamethrin, reference compound]
inhibition at 250 µM [1, 4]: 0.3%

inhibition at 250 µM [1, 7]: -9.9%
Compound: Cc1ccc(C(=O)Nc2ccc(S(=O)(=O)O)c3cc(S(=O)(=O)O)cc(S(=O)(=O)O)c23)cc1NC(=O)c1cccc(NC(=O)Nc2cccc(C(=O)Nc3cc(C(=O)Nc4ccc(S(=O)(=O)O)c5cc(S(=O)(=O)O)cc(S(=O)(=O)O)c45)ccc3C)c2)c1 [SF1672-100, Suramin, Sodium Salt, reference compound]

Compound: CC12CCC(C)(O1)C(C(=O)O)C2C(=O)O (stereo not shown) [SF1676-000, 1,4-Dimethylendothall, reference compound]
inhibition at 250 µM [1, 4]: 3.3%

Compound: CC1(C(=O)O)C2CCC(O2)C1(C)C(=O)O (stereo not shown) [SF1679-000, Cantharidic Acid, reference compound]
inhibition at 250 µM [1, 4]: 2.7%

Compound: CCN(N=O)c1ccc(O)c(O)c1 [SF1681-000, 3,4-Dephostatin, Ethyl-, reference compound]
pIC50 [2]: 4.30 | inhibition at 250 µM [1, 4]: 82.4% | pIC50 [3]: 4.30

Compound: CC(C)C(C(=O)OC(C#N)c1cccc(Oc2ccccc2)c1)c1ccc(Cl)cc1 (stereo not shown) [SF1683-000, Fenvalerate, reference compound]
inhibition at 250 µM [1, 4]: -25.5%

Compound: O=P(O)(O)Oc1cccc2ccccc12 [SF1684-100, α-Naphthyl Acid Phosphate, Monosodium Salt, reference compound]
inhibition at 250 µM [1, 4]: 11.2%

inhibition at 250 µM [1, 7]: 10.9%
Compound: O=P(O)(O)OC(CO)CO [SF1685-100, β-Glycerophosphate, Disodium Salt, Pentahydrate, reference compound]

Compound: O=C(O)[C@@H]1[C@H](C(=O)O)[C@H]2CC[C@@H]1O2 [SF1686-000, Endothall, reference compound]
inhibition at 250 µM [1, 4]: -1.2%

pIC50 ([2]; Table 29, read-out: PTP1B IC50): 4.22 | inhibition at 250 µM [1, 8]: 57 to 95% | pIC50 ([3]; Table 29, read-out: PTEN IC50): 4.30
Compound: Cc1cccc(-n2cnc(C(=O)NNC(=O)c3ccc(C(C)(C)C)cc3)c2)n1 [SF1708-000]

Compound: O=C1C(=O)c2ccccc2-c2ccccc21 [SF1721-000]
pIC50 [2]: 4.77 | inhibition at 250 µM [1, 9]: 99.7% | pIC50 [3]: 5.47

Compound: O=C1C(=O)c2cc([N+](=O)[O-])ccc2-c2ccccc21 [SF1722-000]
inhibition at 250 µM [1, 9]: 99.3% | pIC50 [3]: 5.40

inhibition at 250 µM [1, 8]: 15.9%
Compound: CC(C)(C)c1ccc(C(=O)NNC(=O)c2ccc(C(C)(C)C)cc2)cc1 [SF1733-000]

Compound: Oc1cc2ccccc2c2ccccc12 [SF1734-000]
pIC50 [3]: 4.48

pIC50 ([2]; Table 29, read-out: PTP1B IC50): < 3.60 | pIC50 ([3]; Table 28, read-out: PTEN IC50): 4.70
Compound: O=C1CC(S(=O)(=O)O)c2ccccc2C1=O (stereo not shown) [SF1735-000]

Compound: O=C1C=Cc2ccccc2C1=O [SF1736-000]
pIC50 [3]: 4.68

Compound: O=C1C=CC(=O)c2ccccc21 [SF1737-000]
pIC50 [3]: 4.37
